Values joined by “and” are separate entries in the source; they are usually repeats but may differ in a detail not shown here. Equal values may be shown once. “Also recorded” adds a separate entry of the source. Square brackets hold non-standard residues; d marks the D form. Peptide text beside a SMILES is read from it. * marks the point of attachment. pGlu = O=C1CC[C@@H](C(=O)O)N1; Octanoyl = CCCCCCCC(=O)*
System: B cells, T cells, eosinophils, neutrophils, macrophages/dendritic cells in BALF
Test: LPS-induced acute lung injury / ARDS mouse model: BALF differential cell count by FACS
Assay type: in vivo, BALB/c mice
Design: key to Macrophages / B cells / T cells / Eosinophils / Neutrophils: (+) indicates activation; (−) indicates inhibition
Details: for B cells (%) / Eosinophils (%) / Macrophages & dendritic cells (%) / Neutrophils (%) / T cells (%) / Eosinophils / Macrophages / B cells / Neutrophils / T cells: BALF
Method: In order to test the efficacy of ZEP3 sodium on lung inflammation, the lipopolysaccharide (LPS)-induced acute lung injury model was used. In particular, LPS was administered intratracheally at doses of 10 or 40 mg/kg body weight (BW) corresponding to 0.2 or 0.8 mg/mouse, respectively.
ZEP3 sodium was administered by inhalation (INH) at doses of 25 or 250 mg/kg BW (0.5 or 5 mg/mouse, respectively), or intratracheally (IT) at doses of 5 or 20 mg/kg BW (0.1 or 0.4 mg/mouse, respectively) 6 hours after LPS administration and its effect was measured 72 hours following administration in the branchial alveolar fluid (BALF) using FACS instrumentation. […]

[1] = Group 2: ZEP3Na 0.1 mg IT, no LPS, group mean
[2] = Group 2: ZEP3Na 0.1 mg IT, no LPS, individual mice
[3] = Group 3: ZEP3Na 0.4 mg IT, no LPS, group mean
[4] = Group 3: ZEP3Na 0.4 mg IT, no LPS, individual mice
[5] = Group 4: LPS 0.8 mg + ZEP3Na 0.1 mg IT, group mean
[6] = Group 4: LPS 0.8 mg + ZEP3Na 0.1 mg IT, individual mice
[7] = Group 5: LPS 0.8 mg + ZEP3Na 0.4 mg IT, group mean
[8] = Group 5: LPS 0.8 mg + ZEP3Na 0.4 mg IT, individual mice
[9] = Group 8: LPS 0.2 mg + ZEP3Na 0.1 mg IT, group mean
[10] = Group 8: LPS 0.2 mg + ZEP3Na 0.1 mg IT, individual mice
[11] = Group 9: LPS 0.2 mg + ZEP3Na 0.4 mg IT, group mean
[12] = Group 9: LPS 0.2 mg + ZEP3Na 0.4 mg IT, individual mice
[13] = LPS 0.2 mg + ZEP3Na (IT) 0.1 mg
[14] = LPS 0.2 mg + ZEP3Na (IT) 0.4 mg
[15] = LPS 0.8 mg + ZEP3Na (INH) 0.5 mg
[16] = administered by inhalation following LPS instillation
[17] = administered intratracheally following LPS instillation

## CCCCCCCC(=O)NCCCC[C@H](NC(=O)[C@H](Cc1c[nH]c2ccccc12)NC(=O)[C@H](CC(N)=O)NC(=O)[C@@H]1CCC(=O)N1)C(=O)O [ZEP3Na, pGlu-Asn-Trp-Lys(Octanoyl)-ONa] ([pGlu]NWK(Octanoyl)-OH)
0.2 mg LPS, ZEP3Na 0.1 and 0.4 mg, compared to untreated mice that received 0.2 mg LPS
  bronchoalveolar eosinophils percentage: significant decrease; also recorded: significantly inhibited
[1]
  B cells (%): 0.163%
  Eosinophils (%): 0.412%
  Macrophages & dendritic cells (%): 66.715%
  Neutrophils (%): 6.816%
  T cells (%): 3.078%
[2]
  B cells (%): 0.320% and 0.208% and 0.091% and 0.218% and 0.150% and 0.089% and 0.103% and 0.162% and 0.147% and 0.138%
  Eosinophils (%): 0.192% and 0.556% and 0.185% and 0.196% and 0.692% and 0.058% and 0.261% and 0.828% and 0.606% and 0.546%
  Macrophages & dendritic cells (%): 69.267% and 65.626% and 66.568% and 65.527% and 65.957% and 70.380% and 68.287% and 64.068% and 65.131% and 66.345%
  Neutrophils (%): 8.302% and 7.056% and 4.882% and 7.770% and 5.279% and 3.207% and 3.871% and 12.158% and 8.592% and 7.044%
  T cells (%): 3.447% and 3.524% and 4.627% and 2.747% and 2.636% and 1.788% and 2.856% and 2.681% and 3.118% and 3.354%
[3]
  B cells (%): 0.176%
  Eosinophils (%): 0.277%
  Macrophages & dendritic cells (%): 72.219%
  Neutrophils (%): 4.248%
  T cells (%): 1.983%
[4]
  B cells (%): 0.310% and 0.225% and 0.162% and 0.154% and 0.106% and 0.100% and 0.160% and 0.223% and 0.144%
  Eosinophils (%): 0.151% and 0.400% and 0.136% and 0.176% and 0.138% and 0.390% and 0.192% and 0.540% and 0.366%
  Macrophages & dendritic cells (%): 72.760% and 67.646% and 73.862% and 72.372% and 77.634% and 73.286% and 72.368% and 67.355% and 72.688%
  Neutrophils (%): 3.325% and 7.965% and 2.600% and 3.496% and 2.405% and 3.740% and 3.111% and 7.438% and 4.152%
  T cells (%): 2.519% and 3.322% and 1.247% and 1.675% and 1.513% and 1.348% and 1.817% and 2.755% and 1.654%
[5]
  B cells (%): 0.164%
  Eosinophils (%): 0.833%
  Macrophages & dendritic cells (%): 20.180%
  Neutrophils (%): 59.048%
  T cells (%): 2.194%
[6]
  B cells (%): 0.118% and 0.102% and 0.048% and 0.030% and 0.045% and 0.489% and 0.052% and 0.572% and 0.017%
  Eosinophils (%): 0.170% and 0.064% and 1.024% and 0.755% and 0.646% and 3.005% and 0.568% and 0.840% and 0.425%
  Macrophages & dendritic cells (%): 71.986% and 72.475% and 1.316% and 0.956% and 1.424% and 16.916% and 1.107% and 14.732% and 0.713%
  Neutrophils (%): 6.007% and 2.454% and 77.259% and 86.115% and 82.630% and 57.391% and 82.523% and 54.903% and 82.147%
  T cells (%): 0.991% and 1.527% and 0.804% and 0.573% and 0.865% and 5.340% and 0.937% and 8.033% and 0.675%
[7]
  B cells (%): 0.054%
  Eosinophils (%): 0.475%
  Macrophages & dendritic cells (%): 12.756%
  Neutrophils (%): 67.517%
  T cells (%): 0.895%
[8]
  B cells (%): 0.014% and 0.011% and 0.028% and 0.024% and 0.167% and 0.138% and 0.026% and 0.022%
  Eosinophils (%): 0.303% and 0.448% and 0.323% and 0.298% and 1.427% and 0.195% and 0.530% and 0.280%
  Macrophages & dendritic cells (%): 0.470% and 0.297% and 0.271% and 0.442% and 30.597% and 68.407% and 0.798% and 0.764%
  Neutrophils (%): 77.586% and 88.700% and 84.629% and 80.400% and 39.818% and 3.154% and 84.929% and 80.922%
  T cells (%): 0.383% and 0.495% and 0.512% and 0.577% and 1.800% and 2.098% and 0.609% and 0.685%
[9]
  B cells (%): 0.097%
  Eosinophils (%): 0.210%
  Macrophages & dendritic cells (%): 2.327%
  Neutrophils (%): 79.428%
  T cells (%): 1.662%
[10]
  B cells (%): 0.040% and 0.064% and 0.259% and 0.230% and 0.080% and 0.054% and 0.069% and 0.053% and 0.045% and 0.075%
  Eosinophils (%): 0.247% and 0.204% and 0.223% and 0.251% and 0.143% and 0.176% and 0.180% and 0.265% and 0.225% and 0.192%
  Macrophages & dendritic cells (%): 2.218% and 1.674% and 5.674% and 2.257% and 0.618% and 1.800% and 1.175% and 5.084% and 1.252% and 1.516%
  Neutrophils (%): 84.112% and 84.283% and 69.683% and 74.854% and 81.436% and 79.270% and 71.074% and 80.725% and 85.962% and 82.883%
  T cells (%): 0.940% and 0.742% and 5.066% and 3.187% and 1.024% and 1.045% and 1.327% and 0.892% and 1.131% and 1.271%
[11]
  B cells (%): 0.092%
  Eosinophils (%): 0.270%
  Macrophages & dendritic cells (%): 24.471%
  Neutrophils (%): 55.279%
  T cells (%): 1.175%
[12]
  B cells (%): 0.045% and 0.054% and 0.029% and 0.019% and 0.100% and 0.153% and 0.286% and 0.103% and 0.037%
  Eosinophils (%): 0.243% and 0.159% and 0.151% and 0.192% and 0.238% and 0.345% and 0.577% and 0.237% and 0.288%
  Macrophages & dendritic cells (%): 4.399% and 1.327% and 0.529% and 0.437% and 1.661% and 60.592% and 75.765% and 73.903% and 1.626%
  Neutrophils (%): 77.353% and 85.551% and 87.483% and 77.212% and 72.881% and 9.005% and 3.108% and 3.716% and 81.207%
  T cells (%): 1.035% and 0.833% and 0.582% and 0.685% and 1.665% and 2.779% and 0.977% and 1.174% and 0.843%
[13]
  Eosinophils: −
  Macrophages: +
[14]
  Eosinophils: −
  Macrophages: +
[15]
  B cells: +
  Eosinophils: −
  Macrophages: +
  Neutrophils: −
  T cells: −
LPS 0.8 mg + ZEP3Na (INH) 5 mg
  B cells: +
  Eosinophils: −
  Macrophages: +
  Neutrophils: −
  T cells: −
[16]
  levels of T cells, eosinophils, neutrophils: significantly inhibited the expression and reduced the levels
  levels of macrophages and B cells: increased the levels
[17]
  levels of eosinophils: significantly inhibited the expression and reduced the levels
  levels of macrophages: increased the levels

From US20240252581A1, “COMPOSITIONS AND METHODS FOR TREATING RESPIRATORY DISTRESS” (S.I.S. SHULOV INNOVATIVE SCIENCE LTD., priority 2021, published 2024)
